Test results published in paper PMC10301432, “Antiplasmodial, Trypanocidal, and Genotoxicity In Vitro Assessment of New Hybrid α,α-Difluorophenylacetamide-statin Derivatives” (Pharmaceuticals, 2023).

Assays:
[1] = test system: trypomastigote forms of T. cruzi (Y strain); experiment: Trypanocidal activity on bloodstream trypomastigotes; format: cell-based, Trypanosoma cruzi; settings: Trypanosoma cruzi; bloodstream trypomastigotes, Y strain; 24 h at 37 °C
Experimental: (§1) Bloodstream trypomastigote forms (BT) of the Y strain were obtained from infected albino Swiss mice at the peak of parasitemia, isolated by differential centrifugation and resuspended in DMEM to a parasite concentration of 10^7 cells/mL in the presence of 10% of mouse blood. This suspension (100 µL) was added in the same volume of 13 (a–d) and 14 (a–d) previously prepared at twice the desired final concentrations.

[2] = Salmonella/microsome assay, TA104; settings: Salmonella enterica serovar Typhimurium
Experimental: (§2) Salmonella enterica serovar Typhimurium (S. typhimurium) strains TA97, TA98, TA100, TA104 and TA102 from the authors’ stock were used as described in the mutagenicity assay.
(§3) To determine the cytotoxic effects, after 30 min pre-incubation, the assay mixtures were diluted in 0.9% NaCl (w/v) to obtain a suspension containing 2 × 10^2 cells/mL. […] The plates were then incubated at 37 °C for 24 h and the colonies counted. All the experiments were conducted in triplicate and were repeated at least twice. Statistical differences between the groups were analyzed by a two-way ANOVA (p < 0.05) and Tukey’s post hoc test.

[3] = test system: Salmonella enterica serovar Typhimurium TA104; experiment: Salmonella/microsome assay, TA104
Experimental: as §2, §3

[4] = Salmonella/microsome assay, TA98; settings: Salmonella enterica serovar Typhimurium, S. typhimurium TA98 without S9 mix, pH 7.4
Experimental: as §2, §3

[5] = test system: Salmonella enterica serovar Typhimurium TA98; experiment: Salmonella/microsome assay, TA98
Experimental: as §2, §3

[6] = Salmonella/microsome assay, TA97; settings: Salmonella enterica serovar Typhimurium, S. typhimurium TA97 without S9 mix, pH 7.4
[7] = test system: intracellular forms of T. cruzi (Tulahuen strain transfected with β-galactosidase); experiment: Activity against intracellular T. cruzi in L929 cells; format: cell-based, Trypanosoma cruzi; settings: 96 h; for EC50: intracellular forms, Tulahuen strain
Experimental: Tissue culture-derived trypomastigotes (Tulahuen strain expressing the E. coli β-galactosidase gene) were maintained in L929 cell lines and collected from the supernatant after 96 h of parasite infection, following previously established protocols. Briefly, after 24 h of L929 platting (4 × 10^3 cells/well), the cultures were incubated with trypomastigotes (10:1 parasite/host cell ratio) for 2 h at 37 °C. Then, the cell cultures were rinsed to remove non-internalized parasites and then further incubated for 24 h at 37 °C. Then the infected cultures were followed using two sequential protocols. […] After this period, 50 µL chlorophenol red glycoside (500 µM) in 0.5% Nonidet P40 was added to each well and the plate was incubated for more than 18 h at 37 °C, after which the absorbance was measured at 570 nm. […] Controls with untreated and Bz-treated cells are run in parallel. The results were expressed as the percent difference in the reduction between treated and untreated cells.

[8] = Salmonella/microsome assay, TA100; settings: Salmonella enterica serovar Typhimurium, S. typhimurium TA100 without S9 mix, pH 7.4
[9] = test system: Salmonella enterica serovar Typhimurium TA100; experiment: Salmonella/microsome assay, TA100
T. cruzi = experiment: Trypanocidal in vitro phenotypic screening, overall outcome; format: cell-based, Trypanosoma cruzi; settings: summarized outcome
Experimental: as §1
Tissue culture-derived trypomastigotes (Tulahuen strain expressing the E. coli β-galactosidase gene) were maintained in L929 cell lines and collected from the supernatant after 96 h of parasite infection, following previously established protocols. Briefly, after 24 h of L929 platting (4 × 10^3 cells/well), the cultures were incubated with trypomastigotes (10:1 parasite/host cell ratio) for 2 h at 37 °C. Then, the cell cultures were rinsed to remove non-internalized parasites and then further incubated for 24 h at 37 °C. Then the infected cultures were followed using two sequential protocols. […] After this period, 50 µL chlorophenol red glycoside (500 µM) in 0.5% Nonidet P40 was added to each well and the plate was incubated for more than 18 h at 37 °C, after which the absorbance was measured at 570 nm. Then, the compounds were next evaluated using dose–response assays in which Tulahuen-infected-L929 cells were exposed to different non-toxic concentrations of each compound (0–50 µM) and then after 96 h of incubation the same procedure was conducted as above reported. Controls with untreated and Bz-treated cells are run in parallel. The results were expressed as the percent difference in the reduction between treated and untreated cells.

[10] = test system: human hepatoma cell line (HepG2); experiment: in vitro; format: cell-based; settings: preliminary cytotoxicity, HepG2
Outline: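 Cells grown in MEM with 10% FBS at 37 °C, 5% CO2, and seeded at 1 × 10^4/well. After treatment, viability read by WST-1 over 3 h incubation, absorbance at 440 nm.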

in vitro = settings: Salmonella enterica serovar Typhimurium, pH 7.4

CC(=O)Nc1ccc(C)cc1C(F)(F)C(=O)NCC[C@@H]1C[C@H](CC(=O)OC(C)(C)C)OC(C)(C)O1 [Compound 13b, tert-Butyl 2-((4R,6R)-6-(2-(2-(2-acetamido-5-methylphenyl)-2,2-difluoroacetamido)ethyl)-2,2-dimethyl-1,3-dioxan-4-yl)acetate]
EC50 [1]: > 0.5 mM | CC50 at 30 min ([2]; S. typhimurium TA104 with S9 mix, LC50 (bacterial cytotoxicity) TA104, presence of S9 mix): > 1.5 mM | CC50 at 30 min ([2]; S. typhimurium TA104 without S9 mix, pH 7.4, LC50 (bacterial cytotoxicity) TA104, absence of S9 mix): > 1.5 mM | revertant His+ colonies TA104 ([3]; +S9, 3 µM): 355 ± 12 | revertant His+ colonies TA104 ([3]; +S9, 15 µM): 356 ± 14 | revertant His+ colonies TA104 ([3]; +S9, 30 µM): 421 ± 67 | revertant His+ colonies TA104 ([3]; +S9, 150 µM): 447 ± 45 | revertant His+ colonies TA104 ([3]; +S9, 300 µM): 449 ± 18 | revertant His+ colonies TA104 ([3]; +S9, 1500 µM): 510 ± 13 | revertant His+ colonies TA104 ([3]; −S9, 3 µM): 210 ± 11 | revertant His+ colonies TA104 ([3]; −S9, 15 µM): 267 ± 15 | revertant His+ colonies TA104 ([3]; −S9, 150 µM): 326 ± 13 | revertant His+ colonies TA104 ([3]; −S9, 300 µM): 350 ± 22 | revertant His+ colonies TA104 ([3]; −S9, 1500 µM): 400 ± 11 | CC50 at 30 min [4]: > 1.5 mM | revertant His+ colonies TA98 ([5]; +S9, 3 µM): 27 ± 5 | revertant His+ colonies TA98 ([5]; +S9, 15 µM): 27 ± 1 | revertant His+ colonies TA98 ([5]; +S9, 30 µM): 27 ± 5 | revertant His+ colonies TA98 ([5]; +S9, 150 µM): 27 ± 5 | revertant His+ colonies TA98 ([5]; +S9, 300 µM): 39 ± 1 | revertant His+ colonies TA98 ([5]; +S9, 1500 µM): 45 ± 4 | revertant His+ colonies TA98 ([5]; −S9, 3 µM): 18 ± 2 | revertant His+ colonies TA98 ([5]; −S9, 15 µM): 19 ± 3 | revertant His+ colonies TA98 ([5]; −S9, 30 µM): 21 ± 5 | revertant His+ colonies TA98 ([5]; −S9, 150 µM): 22 ± 2 | revertant His+ colonies TA98 ([5]; −S9, 300 µM): 22 ± 2 | revertant His+ colonies TA98 ([5]; −S9, 1500 µM): 26 ± 4 | CC50 at 30 min [6]: > 1.5 mM | EC50 ([7]; Trypanosoma cruzi, TULAHUEN, L929, 96 h): ≥ 0.05 mM | 10µM (% of Parasite Lysis) ([7]; fixed concentration 10 µM): 25.41 ± 10.90% | EC50 [7]: > 0.05 mM | CC50 at 30 min [8]: > 1.5 mM | revertant His+ colonies TA100 ([9]; +S9, 3 µM): 179 ± 38 | revertant His+ colonies TA100 ([9]; +S9, 15 µM): 188 ± 23 | revertant His+ colonies TA100 ([9]; +S9, 30 µM): 228 ± 46 | revertant His+ colonies TA100 ([9]; +S9, 150 µM): 260 ± 32 | revertant His+ colonies TA100 ([9]; +S9, 300 µM): 306 ± 60 | revertant His+ colonies TA100 ([9]; +S9, 1500 µM): 333 ± 45 | revertant His+ colonies TA100 ([9]; −S9, 3 µM): 145 ± 11 | revertant His+ colonies TA100 ([9]; −S9, 15 µM): 146 ± 1 | revertant His+ colonies TA100 ([9]; −S9, 30 µM): 145 ± 17 | revertant His+ colonies TA100 ([9]; −S9, 150 µM): 143 ± 40 | revertant His+ colonies TA100 ([9]; −S9, 300 µM): 144 ± 8 | revertant His+ colonies TA100 ([9]; −S9, 1500 µM): 178 ± 10 | Trypanocidal Activity (T. cruzi): No | lack of toxic events up to [10]: up to 400 μM | CC50 (in vitro): > 1.5 mM
